How the values were obtained:
[1] = Photo stability under iodine tungsten lamp irradiation (residual absorptivity); assay type: physicochemical; conditions: 10 μM in acetonitrile; 6 hrs continuous irradiation, 500 W iodine tungsten lamp, 25 cm
Protocol: The photo stability of dyes 2a-2e, and 3a-e (with a concentration of 10 μM) prepared above was tested. Corresponding weights of dyes 2a-2e and 3a-e and their references coumarin and Nile red were weighed, and dissolved in acetonitrile (at a concentration of 10 μM) respectively. All the samples were irradiated with a Philips iodine tungsten lamp (500 W), and the distance between the lamp and the sample was set to 25 cm. An 8 cm-thick NaNO2 (60 g·L^−1) cold trap was positioned between the lamp and the sample, to eliminate heat and short-wavelength light. The irradiation was continued for 6 hrs, during which the ultraviolet fluorescence was tested every half an hour. After 6 hrs, the light stability was measured by residual absorptivity calculated based on the change in the absorption intensity at various times before and after the irradiation. […] The residual absorptivity of dyes 2a-e, and 3a-e is 2a: 93%, 2b: 92%, 2c: 95%, 2d: 91%, 2e: 97%, 3a: 93%, 3b: 92%, 3c: 94%, 3d: 93%, 3e: 92%. It can be seen that dyes 2a-2e and 3a-e have higher photo stability.

[2] = Ultraviolet-visible absorption and fluorescence emission in chloroform; assay type: physicochemical; conditions: 10 μM in chloroform; for maximum emission wavelength (highest fluorescence intensity): excitation 380-385 nm, slit 3 nm/1.5 nm (2a-e), excitation 545-550 nm, slit 1.5 nm/3 nm (3a-e)
Protocol: The ultraviolet absorption and fluorescence emission of the dyes prepared above (at a concentration of 10 μM) in chloroform were tested. The horizontal ordinate is the wavelength, and the vertical ordinate is the absorbance and fluorescence intensity, respectively.
In the ultraviolet-visible absorption spectrum, dye 2a has the maximum absorption at 388 nm; and in the fluorescence spectrum, dye 2a has the highest fluorescence intensity at 457 nm, where the excitation wavelength is 380 nm, and the slit width is 3 nm/1.5 nm. In the ultraviolet-visible absorption spectrum, dye 2b has a maximum absorption wavelength of 386 nm; and in the fluorescence spectrum, dye 2b has a maximum emission wavelength of 459 nm, where the excitation wavelength is 385 nm, and the slit width is 3 nm/1.5 nm. In the ultraviolet-visible absorption spectrum, dye 2c has a maximum absorption wavelength of 385 nm; and in the fluorescence spectrum, dye 2c has a maximum emission wavelength of 455 nm, where the excitation wavelength is 380 nm, and the slit width is 3 nm/1.5 nm. In the ultraviolet-visible absorption spectrum, dye 2d has the maximum absorption at 380 nm; and in the fluorescence spectrum, dye 2d has the highest fluorescence intensity at 457 nm, where the excitation wavelength is 380 nm, and the slit width is 3 nm/1.5 nm. In the ultraviolet-visible absorption spectrum, dye 2e has a maximum absorption wavelength of 385 nm; and in the fluorescence spectrum, dye 2e has a maximum emission wavelength of 458 nm, where the excitation wavelength is 385 nm, and the slit width is 3 nm/1.5 nm. In the ultraviolet-visible absorption spectrum, dye 3a has the maximum absorption at 554 nm; and in the fluorescence spectrum, dye 3a has the highest fluorescence intensity at 604 nm, where the excitation wavelength is 550 nm, and the slit width is 1.5 nm/3 nm. In the ultraviolet-visible absorption spectrum, dye 3b has a maximum absorption wavelength of 552 nm; and in the fluorescence spectrum, dye 3b has a maximum emission wavelength of 597 nm, where the excitation wavelength is 550 nm, and the slit width is 1.5 nm/3 nm. In the ultraviolet-visible absorption spectrum, dye 3c has a maximum absorption wavelength of 552 nm; and in the fluorescence spectrum, dye 3c has a maximum emission wavelength of 621 nm, where the excitation wavelength is 550 nm, and the slit width is 1.5 nm/3 nm. In the ultraviolet-visible absorption spectrum, dye 3d has a maximum absorption wavelength of 551 nm; and in the fluorescence spectrum, dye 3d has a maximum emission wavelength of 607 nm, where the excitation wavelength is 545 nm, and the slit width is 1.5 nm/3 nm. In the ultraviolet-visible absorption spectrum, dye 3e has a maximum absorption wavelength of 553 nm; and in the fluorescence spectrum, dye 3e has a maximum emission wavelength of 585 nm, where the excitation wavelength is 550 nm, and the slit width is 1.5 nm/3 nm. The above UV absorption and fluorescence emission test methods are conventional methods.

[3] = system: mitochondria in HeLa cells; test: Colocalization imaging with red mitochondrial marker Mito Tracker Red CMXRos, laser confocal microscope; assay type: cell-based; conditions: 2 μM; for mitochondria labeling ability: blue channel; for colocalization coefficient: versus Mito Tracker Red CMXRos (100 nm)
Protocol: To test the fluorescent labeling ability of Compound 2a compared with commercial mitochondrial markers, dye 2a was formulated into a mother liquor in DMSO (dimethyl sulfoxide), and then added to a conventional cell culture medium to give a concentration of dye 2a in the cell culture medium of 2 μM. HeLa cells were co-cultured for 10 min in an incubator at saturated humidity, 37° C., and 5% CO2 (the experiment was same below). The red mitochondrial marker Mito Tracker© Red CMXRos (100 nm) was added, and the cells were co-incubated for another 10 min, washed three times with a PBS buffer, and imaged under a laser confocal microscope. In the blue channel, light of 405 nm was used for excitation, and a fluorescence signal in the range of 410-500 nm was collected; and in the red channel, light of 561 nm was used for excitation, and a fluorescence signal in the range of 570-750 nm was collected.
The experiment method with dye 2b (2 μM), dye 2c (2 μM), dye 2d (2 μM), and dye 2e (2 μM) was the same with that with dye 2a, except that dye 2a was replaced.

[4] = system: mitochondria in HeLa cells; test: Colocalization imaging with green mitochondrial marker Mito Tracker Green FM, laser confocal microscope; assay type: cell-based; conditions: 2 μM; for mitochondria labeling ability: red channel; for colocalization coefficient: versus Mito Tracker Green FM (100 nm)
Protocol: Dye 3a was formulated into a mother liquor in DMSO (dimethyl sulfoxide), and then added to a conventional cell culture medium to give a concentration of dye 3a in the cell culture medium of 2 μM. HeLa cells were co-cultured for 10 min in an incubator at saturated humidity, 37° C., and 5% CO2 (the experiment was same below). The green mitochondrial marker Mito Tracker® Green FM (100 nm) was added, and the cells were co-incubated for another 10 min, washed three times with a PBS buffer, and imaged under a laser confocal microscope. In the red channel, light of 561 nm was used for excitation, and a fluorescence signal in the range of 570-750 nm was collected. In the green channel, light of 488 nm was used for excitation, and a fluorescence signal in the range of 500-550 nm was collected.
The experiment method with dye 3b (2 μM), dye 3c (2 μM), dye 3d (2 μM), and dye 3e (2 μM) was the same with that with dye 3a, except that dye 3a was replaced.

Row | residual absorptivity [1] [%] | maximum absorption wavelength [2] [nm] | maximum emission wavelength (highest fluorescence intensity) [2] [nm] | SMILES | mitochondria labeling ability [3] | colocalization coefficient [3] | mitochondria labeling ability [4] | colocalization coefficient [4]
1 | 97 | – | – | CCN(CC)c1ccc2nc3c4ccccc4c(=O)cc-3oc2c1 [Nile Red, Nile red, reference compound] | – | – | – | –
2 | 94 | – | – | O=c1ccc2ccccc2o1 [coumarin, reference compound] | – | – | – | –
3 | 93 | 388 | 457 | CCN(CC)c1ccc2c(C)c(-c3ccc(C(N)=O)cc3)c(=O)oc2c1 [dye 2a] | has mitochondria labeling ability | 0.88 | – | –
4 | 92 | 386 | 459 | CCN(CC)c1ccc2c(C)c(-c3ccc(C(=O)NC)cc3)c(=O)oc2c1 [dye 2b] | have mitochondria labeling ability | 0.94 | – | –
5 | 95 | 385 | 455 | CCN(CC)c1ccc2c(C)c(-c3ccc(C(=O)N(C)C)cc3)c(=O)oc2c1 [dye 2c] | have mitochondria labeling ability | 0.88 | – | –
6 | 91 | 380 | 457 | CCN(CC)c1ccc2c(C)c(-c3ccc4c(c3)CC(=O)N4)c(=O)oc2c1 [dye 2d] | have mitochondria labeling ability | 0.92 | – | –
7 | 97 | 385 | 458 | CCN(CC)c1ccc2c(C)c(-c3ccc4c(c3)CCC(=O)N4)c(=O)oc2c1 [dye 2e] | have mitochondria labeling ability | 0.91 | – | –
8 | 93 | 554 | 604 | CCN(CC)c1ccc2nc3c4ccc(-c5ccc(C(N)=O)cc5)cc4c(=O)cc-3oc2c1 [dye 3a] | – | – | has mitochondria labeling ability | 0.94
9 | 92 | 552 | 597 | CCN(CC)c1ccc2nc3c4ccc(-c5ccc(C(=O)NC)cc5)cc4c(=O)cc-3oc2c1 [dye 3b] | – | – | has mitochondria labeling ability | 0.88
10 | 94 | 552 | 621 | CCN(CC)c1ccc2nc3c4ccc(-c5ccc(C(=O)N(C)C)cc5)cc4c(=O)cc-3oc2c1 [dye 3c] | – | – | has mitochondria labeling ability | 0.94
11 | 93 | 551 | 607 | CCN(CC)c1ccc2nc3c4ccc(-c5ccc6c(c5)CC(=O)N6)cc4c(=O)cc-3oc2c1 [dye 3d] | – | – | has mitochondria labeling ability | 0.96
12 | 92 | 553 | 585 | CCN(CC)c1ccc2nc3c4ccc(-c5ccc6c(c5)CCC(=O)N6)cc4c(=O)cc-3oc2c1 [dye 3e] | – | – | has mitochondria labeling ability | 0.92
